In one assay the test system is RAMP1, RAMP2, RAMP3, CLR. Description: Gene expression of receptor components in distal colon, Study No. P180567. The note with it: 25 nmol/kg i.v., qPCR, 2^-ΔΔCt, GAPDH normalization, vs control. The assay is classed as in vivo, mouse. An excerpt:
Figure 5 Effect of 25 nmol/kg PEG-AM in DSS-induced colitis (Study No. P180567). (a) Overview of the experimental design. Groups: vehicle (n = 20), PEG-AM 25 nmol/kg (n = 20). (b) Total inflammation scores on day 8. ** p < 0.01, Mann–Whitney U test. (c) Bloody stool scores on day 8, *** p < 0.001, Mann–Whitney U test. (d) Colon length. (e) Colon weight-to-length ratio, ** p < 0.01, unpaired t-test. (f) PEG-AM plasma concentrations on day 8. (g–j) Fold changes in gene expression of RAMP1 (g), RAMP2 (h), RAMP3 (i), and CLR (j). * p < 0.05, unpaired t-test.
After measuring colon length and weight, distal colon tissue was collected, immersed in RNAlater (Thermo Fisher Scientific K.K.), and stored at −80 °C until RNA extraction. Total RNA was extracted using the RNeasy Micro Kit (Qiagen, Singapore) and quantified using a DeNovix DS-11 Microvolume Spectrophotometer. cDNA was synthesized from 2 μg of total RNA using a high-capacity cDNA Reverse Transcription Kit (Thermo Fisher Scientific K.K.). Quantitative PCR was performed using the StepOnePlus Real-Time PCR System (Applied Biosystems, Waltham, MA, USA) and TaqMan Gene Expression Assays for mouse RAMP1, RAMP2, RAMP3, CLR (CALCRL), and GAPDH (internal control). […]
All reactions were performed in duplicate. Relative expression levels were calculated using the 2^−ΔΔCt method with GAPDH normalization.
(In qPCR the cycle at which signal appears reflects the starting amount.)

The test system of the next assay is DSS-induced colitis. Description: Effect of 25 nmol/kg PEG-AM in DSS-induced colitis (Study No. P180567). The format is in vivo, mouse. The conditions noted are these: 25 nmol/kg single i.v. one day before DSS, vs control, n = 20. An excerpt: The detailed rationale for this choice is provided in the Discussion. Two groups (control and treatment with 25 nmol/kg PEG-AM) were compared, each consisting of 20 animals.  Figure 5 Effect of 25 nmol/kg PEG-AM in DSS-induced colitis (Study No. P180567). (a) Overview of the experimental design. Groups: vehicle (n = 20), PEG-AM 25 nmol/kg (n = 20). (b) Total inflammation scores on day 8. ** p < 0.01, Mann–Whitney U test. (c) Bloody stool scores on day 8, *** p < 0.001, Mann–Whitney U test. (d) Colon length. (e) Colon weight-to-length ratio, ** p < 0.01, unpaired t-test. (f) PEG-AM plasma concentrations on day 8. (g–j) Fold changes in gene expression of RAMP1 (g), RAMP2 (h), RAMP3 (i), and CLR (j). * p < 0.05, unpaired t-test. To evaluate the pharmacological effects of PEG-AM, three animal studies were conducted by the LSI Medience Corporation following the Animal Welfare Act and institutional approval. Seven-week-old male C57BL/6J JCL mice (CLEA Japan, Inc., Tokyo, Japan) were used in all studies and were housed under pathogen-free conditions. Colitis was induced with 3% (w/v) DSS (MW 5000) in drinking water for seven days. PEG-AM (1.0, 5.0, and 25 nmol/kg) or saline (control) was administered intravenously one day before DSS treatment. Each group included 10 mice. Stool consistency, bleeding, and body weight were evaluated on days −1, 0, 3, 5, and 7. A total inflammation score was calculated. Mice were anesthetized with 3% isoflurane (Zoetis Japan, Tokyo, Japan), and the colon was excised on day 7. Following the protocol described in Section 4.6.1, this study was conducted to confirm the efficacy of 25 nmol/kg intravenous PEG-AM. Each treatment group consisted of 20 mice.

Take “40 kDa PEGylated adrenomedullin [PEG-AM]”: in the assay on RAMP1, RAMP2, RAMP3, CLR, the “Gene expression of receptor components (RAMP1, RAMP2, RAMP3, CLR)” value is “no downregulation”. Also, in the assay on DSS-induced colitis (p = 0.0008, Mann-Whitney U test), the “Bloody stool score on day 8” value is “significantly lower”. In the assay with DSS-induced colitis (p = 0.0024, unpaired t-test), the “Colon weight per unit length” value was “significantly lower”. For the same substance, the “Total inflammation score on day 8” value in the assay with DSS-induced colitis (p = 0.0062, Mann-Whitney U test) is “significantly lower”. The Colon length entry in the assay on DSS-induced colitis (p = 0.1429, unpaired t-test) is on record as “not significantly different”.

(Values after publication PMC12524408 (International Journal of Molecular Sciences, 2025).)
